Assay results reported in publication PMC8287028 (Frontiers in Veterinary Science, 2021).
Where “and” joins values, the source holds several entries; their conditions need not be identical. Equal values may be shown once. Read-outs that look alike come from different tables or passages of the source.

Columns and labels:
citrated whole blood = assay: Tissue-factor activated thromboelastography (TF-TEG) on citrated whole blood of dosed dogs; type: in vivo, dog
Protocol: Catheters were flushed with 0.9% saline, without heparin. […] Coagulation assays were performed on platelet-poor, citrated plasma samples by a reference laboratory (Comparative Coagulation Laboratory, Animal Health Diagnostic Center, Ithaca, NY). […] Residual, uninhibited Factor Xa cleaves the chromogenic substrate such that the inverse of the color change in the reaction mixture is proportional to the drug concentration in the test plasma. […] Assay controls, consisting of human plasma spiked with apixaban (STA Apixaban Controls, Diagnostica Stago) were analyzed before each batch of test samples to confirm assay performance. The apixaban levels in calibrators and controls are defined by the manufacturer from an internal reference assayed by HPLC-MS. […] A mechanical endpoint method (STA Compact, Diagnostica Stago) and human coagulation reagents were used to measure prothrombin time (Thromboplastin LI, Helena Diagnostics, Beaumont, TX) and activated partial thromboplastin time (Dade Actin FS, Dade Behring, Newark, DE). […] Tissue-factor (1:50,000 final dilution) activated TEG was performed using standard equipment (TEG-5000, Haemonetics, Braintree, MA) as previously reported ([35]), with assays conducted per established guidelines ([36]), with a modification to eliminate the rest time to facilitate rapid sample processing. Thromboelastography assays were conducted by experienced operators using four TEG channels and tracings terminated after maximum amplitude was established. Four values were extracted from TEG tracings: reaction time (R-time), clot formation time (K-time), clot formation angle (alpha), and maximum amplitude (MA). Pairwise comparisons between continuous variables were conducted with Wilcoxon matched-pairs signed rank test, while comparisons of more than two groups were conducted using the Friedman test with Dunn's post-hoc adjustment. Specifically, the Wilcoxon matched-pairs signed rank tests were used to compare the complete blood count and serum chemistry values between baseline and the +24 h time point. Comparisons of pharmacodynamic variables between baseline values and those at discrete sampling intervals were performed using the Friedman test with Dunn's post-hoc correction for multiple comparisons. […] Alpha was set at 0.05. Statistical analyses were performed using commercial software (Prism 9, GraphPad, La Jolla, CA).

[1] = Pharmacokinetics after intravenous apixaban, plasma concentrations by LC/MS; type: in vivo, dog; settings: dogs; for Vd: read-out: Vd (volume of distribution); for AUC: read-out: AUC (area-under-the-curve); for C0: read-out: C0 (concentration at time zero); for clearance: read-out: CL (systemic clearance) (converted); for half-life: read-out: K10 T½ (elimination half-life) (converted); for MRT: read-out: MRT (mean residence time)
Protocol: All injection durations were identical.
Catheters were flushed with 0.9% saline, without heparin.
Analyses of plots and PK modeling were performed using compartmental methods in standard software (Phoenix, WinNonlin, Certara, St. Louis, MO). One-, 2- and 3-compartment models were fit to the plasma concentration data.

major plasma proteins = assay: Protein binding by ex vivo ultrafiltration of spiked plasma, LC/MS; type: in vitro ADME, dog
Protocol: For each dog a sample of anticoagulated platelet-poor plasma collected at baseline was centrifuged (16,000 g, 5 min, 4°C) and the supernatant filtered with a […] syringe filter. […] One aliquot was centrifuged (16,000 g, 30 min, 4°C) in a molecular exclusion device (Amicon Ultra 30k filter, Millipore-Sigma) to remove the major plasma proteins. The spiked plasma and the ultrafiltrate were then analyzed for apixaban by LC/MS as above. Protein binding (%) was determined as: [Total concentration] – [[…] Unbound concentration]/Total concentration ×100.

[2] = both sexes, mixed-breed, dog, plasma, iv, 0.18 mg/kg, IV, mean dose 0.18 mg/kg, geometric mean
[3] = both sexes, mixed-breed, dog, plasma, iv, 0.18 mg/kg, IV, mean dose 0.18 mg/kg, mean of 6 dogs
[4] = IV, mean dose 0.18 mg/kg, individual dogs (Dog 1-6), 0.18 mg/kg

COc1ccc(-n2nc(C(N)=O)c3c2C(=O)N(c2ccc(N4CCCCC4=O)cc2)CC3)cc1 [apixaban]
TF-TEG K-time versus baseline (citrated whole blood; IV 0.18 mg/kg, at 5 min): significantly different from baseline | TF-TEG R-time versus baseline (citrated whole blood; IV 0.18 mg/kg, at 5 min): significantly different from baseline | TF-TEG alpha angle versus baseline (citrated whole blood; IV 0.18 mg/kg, at 5 min): significantly different from baseline | TF-TEG R-time versus baseline (citrated whole blood; IV 0.18 mg/kg, at 15 min ([…])): significantly prolonged | TF-TEG tracings (citrated whole blood; PO 0.2 mg/kg): not consistently affected | TF-TEG R-time versus baseline (citrated whole blood; PO 0.2 mg/kg, at the 12-h timepoint): significantly different from baseline | Vd ([1]; both sexes, mixed-breed, dog, in vivo, iv, 0.18 mg/kg, IV, mean dose 0.18 mg/kg, individual dogs (Dog 1-6)): 0.163 L/kg | AUC [1, 2]: 5620 ng·h/mL | C0 [1, 2]: 1000 ng/mL | clearance [1, 2]: 0.52 mL/min/kg | half-life [1, 2]: 3.9 h | MRT [1, 2]: 5.6 h | Vd [1, 2]: 0.175 L/kg | C0 ([1]; both sexes, mixed-breed, dog, plasma, iv, 0.18 mg/kg, IV, mean dose 0.18 mg/kg, individual dogs (Dog 1-6)): 1210 ng/mL | AUC [1, 3]: 6030 ng·h/mL | C0 [1, 3]: 1010 ng/mL | clearance [1, 3]: 0.563 mL/min/kg | half-life [1, 3]: ~4.1 h | MRT [1, 3]: 6 h | Vd [1, 3]: 0.177 L/kg | concentration at 24 h ([1]; both sexes, mixed-breed, dog, plasma, IV 0.18 mg/kg, at 24 h, read-out: mean residual plasma concentration): 17 ng/mL | AUC ([1]; both sexes, mixed-breed, in vivo, IV, mean dose 0.18 mg/kg, one-compartment model, individual dogs (Dog 1-6)): 8140 ng·h/mL | AUC (area-under-the-curve) ([1]; IV, mean dose 0.18 mg/kg, one-compartment model, individual dogs (Dog 1-6), 0.18 mg/kg): 5,726.9 h*ng/ml and 4,802.6 h*ng/ml and 7,639.4 h*ng/ml and 7,330.9 h*ng/ml and 2,516.3 h*ng/ml | K10 (first order elimination rate) ([1]; IV, mean dose 0.18 mg/kg, geometric mean): 0.2 h⁻¹ | C0 (concentration at time zero) [1, 4]: 853.9 ng/ml and 1,108.0 ng/ml and 958.3 ng/ml and 1,005.0 ng/ml and 913.4 ng/ml | CL (systemic clearance) [1, 4]: 0.573 mL/min/kg and 0.683 mL/min/kg and 0.39 mL/min/kg and 0.367 mL/min/kg and 0.348 mL/min/kg and 1.01 mL/min/kg | K10 (first order elimination rate) [1, 4]: 0.2 1/h (3×) and 0.1 1/h (2×) and 0.4 1/h | K10 T½ (elimination half-life) [1, 4]: 3.3 h and 4.8 h and 5.9 h and 5.1 h and 1.9 h | K10 (first order elimination rate) ([1]; IV, mean dose 0.18 mg/kg, mean of 6 dogs): 0.2 h⁻¹ | fraction unbound at 500 ng/ml (major plasma proteins; both sexes, mixed-breed, platelet-poor plasma, dog plasma spiked at 500 ng/ml, ultrafiltration, mean of 6 dogs, using 7 ng/ml for the deproteinated samples): 0.014 | apixaban concentration in deproteinated samples (major plasma proteins; ultrafiltrate of dog plasma spiked at 500 ng/ml, all samples): < 7 ng/mL
